Experiment: GC/MS analysis of incorporation of methyl jasmonate into nano carriers (inclusion complexes)
Type: physicochemical
Conditions: determined by GC
Experimental: The following analysis were performed with GC/MS (gas chromatography/mass spectrometry), showing possible breakages of the elements that are included in the jasmonate family and also inclusion of such elements in several nano carriers such as dendrimers and CDs for comparison of analytical behavior. Used dendrimers was PAMAM (poly amide amine). Cyclodextrin was used as β-cyclodextrin.
Preparation of inclusion complexes was performed according to Rajewski R A, Stella V J pharmaceutical applications of cyclodextrins. 2. In delivering the in vivo drug. J. Pharm Sci 1996; 85 (11):1142-69. Inclusion compounds, or nano/micro carriers with jasmonates, can be prepared through mixing a different concentration from zero from one or more jasmonate compounds with up to a molar proportion equivalent to the host molecule. The preparation process also includes mixing the compound resulting from metabolism of the element of the jasmonate family in a water solution or other solution with acceptable pharmaceutical salts. The resulting solution is agitated until total dissolution of components in solvent. The mixing time is of some hours until the mixture reaches thermodynamic balance. […]

CC/C=C\CC1C(=O)CCC1CC(=O)OC (centres unmarked) [methyl jasmonate]
percentage regarding incorporation of methyl jasmonate within PAMAM dendrimers (carrier PAMAM (poly amide amine) dendrimers): around 95% | percentage regarding incorporation of methyl jasmonate within β-CD (carrier β-cyclodextrin): 98-99%
